Test results taken from ChEMBL document CHEMBL1201862, “PubChem BioAssay data set” (2004).
The source made the active and inactive calls.

Columns and labels:
[1] = biological target: NACHT, LRR and PYD domains-containing protein 3 (Homo sapiens, UniProt Q96P20); assay: NALP3 inhibitors in yeast, dose response, luminescent (AID 488799); format: functional
[2] = cytotoxicity in HEK-293T cells, dose response, cytotoxicity control for TCR NF-kB inhibitor project, luminescence, T-cell screen hits (AID 489026); format: functional, cell-based;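 also: cells exposed to compound about 14 hours before the viability readout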
Nonstructural protein 1 = Nonstructural protein 1 (Influenza A virus, UniProt Q194T2); format: functional, Influenza A virus (A/California/07/2009(H1N1))
[3] = inhibitors of HIV Env-driven cell fusion, dose response, cherry-pick (AID 652057); format: functional, cell-based
[4] = CEM21 lymphoblast cell cytotoxicity, dose response, cytotoxicity control for viral fusion inhibitor project, CellTiter-Glo luminescence, cherry-picked (AID 652042); format: functional, cell-based;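 also: potency for signal decrease meaning cytotoxicity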
[5] = ZM109 Env clade C HIV-1 fusion inhibitors, dose response, HeLa effector, CEM target cells, luciferase, cherry-pick (AID 652058); format: functional, cell-based
[6] = off-target signal loss in HeLa-CEM21 co-culture – HeLa F-luc CTL cells, cherry-picked, counter-screen for HIV-1 Env fusion inhibitor project, dose response (AID 652040); format: functional, cell-based;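 also: potency for signal decrease marking cytotoxic or nonspecific inhibition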
[7] = inhibitors of clade B AD8 Env fusion, dose response, cell-based, cherry-pick (AID 652062); format: functional;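 also: luciferase signal from cell-cell fusion driven by HIV-1 clade B AD8 Env; potency is for inhibitors of fusion seen as a drop in luminescence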
[8] = biological target: T1, Voltage-gated N-type calcium channel alpha-1B subunit/Amyloid beta A4 precursor protein-binding family A member 1 (Homo sapiens, UniProt Q00975+Q02410); format: protein assay
Large T antigen = Large T antigen (Simian virus 40, UniProt P03070); format: functional, Betapolyomavirus macacae;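 also: Confirmatory-stage PubChem screen for compounds that inhibit SV40 T antigen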
[9] = biological target: T1, Voltage-gated N-type calcium channel alpha-1B subunit/Amyloid beta A4 precursor protein-binding family A member 1; format: protein assay; remark: listed apart in the source
[10] = biological target: Induced myeloid leukemia cell differentiation protein Mcl-1 (Homo sapiens, UniProt Q07820); format: functional
Genome polyprotein = Genome polyprotein (dengue virus type 2, UniProt P29990); assay: Dengue-2 NS5 methyltransferase inhibitors, primary screen, biochemical, confirmation dose response (AID 588689); format: functional
[11] = biological target: T2, Carboxy-terminal domain RNA polymerase II polypeptide A small phosphatase 1 (Homo sapiens, UniProt Q9GZU7); assay: inhibitors of CTDSP1, concentration-response testing, biochemical assay, absorbance-based, actives from ultra-high-throughput screening (AID 540297); format: functional
T2 sequence (Q9GZU7 whole entry): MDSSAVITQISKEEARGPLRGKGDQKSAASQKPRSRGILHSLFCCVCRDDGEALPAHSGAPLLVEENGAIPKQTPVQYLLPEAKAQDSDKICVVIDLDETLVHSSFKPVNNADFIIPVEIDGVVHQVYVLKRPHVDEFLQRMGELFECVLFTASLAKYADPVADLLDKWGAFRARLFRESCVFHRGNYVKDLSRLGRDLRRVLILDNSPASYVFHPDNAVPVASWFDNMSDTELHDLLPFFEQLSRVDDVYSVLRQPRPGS

[12] = biological target: DNA dC->dU-editing enzyme APOBEC-3A (Homo sapiens, UniProt P31941); assay: APOBEC3A DNA deaminase inhibitors, dose response, biochemical (AID 504722); format: functional
[13] = biological target: DNA dC->dU-editing enzyme APOBEC-3G (Homo sapiens, UniProt Q9HC16); assay: Dose Response confirmation of small molecule APOBEC3G DNA Deaminase Inhibitors via a fluorescence-based single-stranded DNA deaminase assay. [Related pubchem assays (depositor defined):AID493012, AID493028]; format: functional
Protein Rev = Protein Rev (Human immunodeficiency virus type 1 group M subtype B (isolate HXB2)(HIV-1), UniProt P04618); assay: inhibitors of Rev binding to RRE RNA, dose response, biochemical, fluorescence polarization, HIV-1 (AID 434976); parameters: species or system Human immunodeficiency virus 1
[14] = biological target: Female germline-specific tumor suppressor gld-1 (Caenorhabditis elegans, UniProt Q17339); assay: inhibitors of GLD-1 binding to TGE RNA, dose response, biochemical, fluorescence polarization, C. elegans (AID 2802);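 also: fluorescence polarization of labeled TGE RNA bound by purified gld-1 protein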
[15] = biological target: T3, RNA-binding protein pos-1 (Caenorhabditis elegans, UniProt G5EF15); assay: inhibitors of POS-1/mex-3 RNA binding, dose response, biochemical, fluorescence polarization (AID 1964);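 also: purified POS-1 fused to maltose binding protein made in E. coli; potency of compounds blocking POS-1 binding to fluorescent RNA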
T3 sequence (G5EF15 whole entry): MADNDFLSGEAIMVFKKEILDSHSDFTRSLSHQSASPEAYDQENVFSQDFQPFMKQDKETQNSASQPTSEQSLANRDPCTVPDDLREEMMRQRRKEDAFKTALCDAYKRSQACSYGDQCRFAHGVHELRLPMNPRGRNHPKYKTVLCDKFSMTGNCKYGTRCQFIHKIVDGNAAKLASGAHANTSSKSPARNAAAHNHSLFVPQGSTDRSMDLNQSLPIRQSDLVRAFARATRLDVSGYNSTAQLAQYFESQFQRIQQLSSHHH

[16] = biological target: T4, Zinc finger protein mex-5 (Caenorhabditis elegans, UniProt Q9XUB2); assay: MEX-5/TCR-2 RNA interaction inhibitors, dose response, biochemical, C. elegans, fluorescence polarization (AID 1960)
T4 sequence (Q9XUB2 whole entry): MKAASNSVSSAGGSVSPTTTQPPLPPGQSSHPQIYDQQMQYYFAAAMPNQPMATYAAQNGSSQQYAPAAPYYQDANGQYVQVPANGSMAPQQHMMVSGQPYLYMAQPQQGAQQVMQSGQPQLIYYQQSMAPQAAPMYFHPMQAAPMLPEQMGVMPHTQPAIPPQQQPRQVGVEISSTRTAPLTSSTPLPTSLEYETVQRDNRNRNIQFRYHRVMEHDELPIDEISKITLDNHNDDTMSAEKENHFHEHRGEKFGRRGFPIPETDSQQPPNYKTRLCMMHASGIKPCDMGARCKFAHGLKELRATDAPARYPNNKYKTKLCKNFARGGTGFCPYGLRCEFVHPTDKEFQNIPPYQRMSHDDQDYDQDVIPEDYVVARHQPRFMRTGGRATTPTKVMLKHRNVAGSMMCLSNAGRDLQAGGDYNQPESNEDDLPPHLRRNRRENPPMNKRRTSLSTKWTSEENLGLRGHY

[17] = Luminescence Cell-Based Dose Response HTS to Identify Activators of Luciferase Translation or Activity in H4 […] Cells. [Related pubchem assays: 1829 (Project Summary), 1814 (Primary HTS)]; format: functional
H4 = assay: Luminescence Cell-Based Dose Response HTS to Identify Activators of 5'UTR Stem-Loop Driven Prion Protein mRNA Translation in H4 Neuroglioblastoma Cells. [Related pubchem assays: 1829 (Project Summary), 1814 (Primary HTS)]; format: functional; conditions: Homo sapiens
Caspase-3 = biological target: T5, Caspase-3 (Homo sapiens, UniProt P42574); format: functional;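 also: Dose-response selectivity test against caspase-3 for candidate inhibitors of sentrin-specific proteases (SENPs)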
T5 sequence (P42574 whole entry): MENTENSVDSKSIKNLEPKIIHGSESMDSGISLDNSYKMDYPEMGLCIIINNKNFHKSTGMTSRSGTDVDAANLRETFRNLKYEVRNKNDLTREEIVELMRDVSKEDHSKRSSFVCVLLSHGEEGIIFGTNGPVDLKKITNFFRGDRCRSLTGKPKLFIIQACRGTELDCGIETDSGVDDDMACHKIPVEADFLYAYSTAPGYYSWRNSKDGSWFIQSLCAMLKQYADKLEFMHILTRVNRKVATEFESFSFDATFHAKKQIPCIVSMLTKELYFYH

[18] = biological target: T6, Sentrin-specific protease 7 (Homo sapiens, UniProt Q9BQF6); format: functional;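 also: Luminescence-based dose-response confirmation of ultra-high-throughput screening hits, measuring inhibition of SENP7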
T6 sequence (Q9BQF6 whole entry): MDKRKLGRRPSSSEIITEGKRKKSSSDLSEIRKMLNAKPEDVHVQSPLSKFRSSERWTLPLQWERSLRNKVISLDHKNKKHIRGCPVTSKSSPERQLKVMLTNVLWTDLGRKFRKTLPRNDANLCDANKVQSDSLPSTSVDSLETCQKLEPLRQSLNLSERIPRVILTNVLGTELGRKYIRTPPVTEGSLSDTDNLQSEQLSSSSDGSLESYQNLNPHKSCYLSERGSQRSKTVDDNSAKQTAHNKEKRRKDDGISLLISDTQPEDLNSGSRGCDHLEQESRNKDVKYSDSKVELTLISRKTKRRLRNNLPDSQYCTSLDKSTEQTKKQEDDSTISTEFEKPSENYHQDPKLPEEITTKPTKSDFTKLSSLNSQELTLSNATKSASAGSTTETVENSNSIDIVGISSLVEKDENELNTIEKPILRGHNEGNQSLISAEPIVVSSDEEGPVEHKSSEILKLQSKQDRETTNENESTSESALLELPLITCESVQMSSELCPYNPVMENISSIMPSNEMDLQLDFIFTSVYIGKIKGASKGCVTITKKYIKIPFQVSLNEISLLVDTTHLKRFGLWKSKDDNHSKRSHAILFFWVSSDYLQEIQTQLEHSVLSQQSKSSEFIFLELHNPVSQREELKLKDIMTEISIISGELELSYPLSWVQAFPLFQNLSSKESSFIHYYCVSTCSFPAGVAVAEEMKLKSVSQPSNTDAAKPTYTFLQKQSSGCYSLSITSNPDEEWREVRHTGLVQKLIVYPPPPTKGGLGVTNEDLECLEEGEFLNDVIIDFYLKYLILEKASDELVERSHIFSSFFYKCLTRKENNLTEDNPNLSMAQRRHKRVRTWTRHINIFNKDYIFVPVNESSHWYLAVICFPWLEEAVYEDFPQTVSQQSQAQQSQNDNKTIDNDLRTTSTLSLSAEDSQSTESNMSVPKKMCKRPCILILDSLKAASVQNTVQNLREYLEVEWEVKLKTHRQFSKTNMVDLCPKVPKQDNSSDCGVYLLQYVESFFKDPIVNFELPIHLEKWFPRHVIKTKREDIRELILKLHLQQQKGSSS

[19] = biological target: T7, Sentrin-specific protease 6 (Homo sapiens, UniProt Q9GZR1); format: functional;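 also: Luminescence-based dose-response confirmatory assay of SENP6 inhibition, following up an ultra-high-throughput screen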
T7 sequence (Q9GZR1 whole entry): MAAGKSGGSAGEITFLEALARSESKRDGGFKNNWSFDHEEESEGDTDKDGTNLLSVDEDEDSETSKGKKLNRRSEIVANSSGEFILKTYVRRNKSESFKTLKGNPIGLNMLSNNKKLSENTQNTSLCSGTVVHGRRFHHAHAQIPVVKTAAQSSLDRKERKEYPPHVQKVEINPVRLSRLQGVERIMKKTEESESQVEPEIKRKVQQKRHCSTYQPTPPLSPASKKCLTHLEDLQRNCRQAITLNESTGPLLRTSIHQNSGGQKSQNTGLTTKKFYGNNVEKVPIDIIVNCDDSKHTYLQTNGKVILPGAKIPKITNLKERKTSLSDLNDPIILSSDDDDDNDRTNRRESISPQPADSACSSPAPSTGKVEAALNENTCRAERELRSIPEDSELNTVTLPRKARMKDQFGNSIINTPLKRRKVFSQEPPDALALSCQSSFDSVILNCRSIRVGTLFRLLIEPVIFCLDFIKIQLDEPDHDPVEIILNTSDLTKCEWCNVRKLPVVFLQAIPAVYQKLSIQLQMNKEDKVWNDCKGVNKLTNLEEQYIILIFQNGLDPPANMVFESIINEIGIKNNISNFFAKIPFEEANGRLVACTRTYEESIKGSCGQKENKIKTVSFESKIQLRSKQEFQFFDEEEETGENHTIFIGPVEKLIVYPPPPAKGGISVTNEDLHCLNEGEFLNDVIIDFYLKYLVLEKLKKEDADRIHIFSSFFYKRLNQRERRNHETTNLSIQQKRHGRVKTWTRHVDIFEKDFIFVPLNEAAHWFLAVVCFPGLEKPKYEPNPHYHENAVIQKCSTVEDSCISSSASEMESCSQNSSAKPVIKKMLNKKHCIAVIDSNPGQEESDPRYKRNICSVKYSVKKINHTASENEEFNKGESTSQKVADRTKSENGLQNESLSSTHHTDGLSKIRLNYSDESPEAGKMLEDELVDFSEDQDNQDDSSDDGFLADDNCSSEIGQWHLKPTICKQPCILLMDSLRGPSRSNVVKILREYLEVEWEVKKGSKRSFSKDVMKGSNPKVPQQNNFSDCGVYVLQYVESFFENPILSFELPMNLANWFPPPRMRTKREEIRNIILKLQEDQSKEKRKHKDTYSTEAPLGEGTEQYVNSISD

[20] = biological target: T8, Sentrin-specific protease 8 (Homo sapiens, UniProt Q96LD8); format: functional;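 also: luminescence read-out of SENP8 inhibition, dose-response confirmation following an ultra-high-throughput screen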
T8 sequence (Q96LD8 whole entry): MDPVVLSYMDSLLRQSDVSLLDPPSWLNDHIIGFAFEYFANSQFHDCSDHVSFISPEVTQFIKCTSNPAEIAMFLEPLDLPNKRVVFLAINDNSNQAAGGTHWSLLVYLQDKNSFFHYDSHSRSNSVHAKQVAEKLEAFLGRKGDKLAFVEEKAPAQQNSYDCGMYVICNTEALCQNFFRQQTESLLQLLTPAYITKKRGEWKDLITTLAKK

T1 sequence (Q00975 whole entry): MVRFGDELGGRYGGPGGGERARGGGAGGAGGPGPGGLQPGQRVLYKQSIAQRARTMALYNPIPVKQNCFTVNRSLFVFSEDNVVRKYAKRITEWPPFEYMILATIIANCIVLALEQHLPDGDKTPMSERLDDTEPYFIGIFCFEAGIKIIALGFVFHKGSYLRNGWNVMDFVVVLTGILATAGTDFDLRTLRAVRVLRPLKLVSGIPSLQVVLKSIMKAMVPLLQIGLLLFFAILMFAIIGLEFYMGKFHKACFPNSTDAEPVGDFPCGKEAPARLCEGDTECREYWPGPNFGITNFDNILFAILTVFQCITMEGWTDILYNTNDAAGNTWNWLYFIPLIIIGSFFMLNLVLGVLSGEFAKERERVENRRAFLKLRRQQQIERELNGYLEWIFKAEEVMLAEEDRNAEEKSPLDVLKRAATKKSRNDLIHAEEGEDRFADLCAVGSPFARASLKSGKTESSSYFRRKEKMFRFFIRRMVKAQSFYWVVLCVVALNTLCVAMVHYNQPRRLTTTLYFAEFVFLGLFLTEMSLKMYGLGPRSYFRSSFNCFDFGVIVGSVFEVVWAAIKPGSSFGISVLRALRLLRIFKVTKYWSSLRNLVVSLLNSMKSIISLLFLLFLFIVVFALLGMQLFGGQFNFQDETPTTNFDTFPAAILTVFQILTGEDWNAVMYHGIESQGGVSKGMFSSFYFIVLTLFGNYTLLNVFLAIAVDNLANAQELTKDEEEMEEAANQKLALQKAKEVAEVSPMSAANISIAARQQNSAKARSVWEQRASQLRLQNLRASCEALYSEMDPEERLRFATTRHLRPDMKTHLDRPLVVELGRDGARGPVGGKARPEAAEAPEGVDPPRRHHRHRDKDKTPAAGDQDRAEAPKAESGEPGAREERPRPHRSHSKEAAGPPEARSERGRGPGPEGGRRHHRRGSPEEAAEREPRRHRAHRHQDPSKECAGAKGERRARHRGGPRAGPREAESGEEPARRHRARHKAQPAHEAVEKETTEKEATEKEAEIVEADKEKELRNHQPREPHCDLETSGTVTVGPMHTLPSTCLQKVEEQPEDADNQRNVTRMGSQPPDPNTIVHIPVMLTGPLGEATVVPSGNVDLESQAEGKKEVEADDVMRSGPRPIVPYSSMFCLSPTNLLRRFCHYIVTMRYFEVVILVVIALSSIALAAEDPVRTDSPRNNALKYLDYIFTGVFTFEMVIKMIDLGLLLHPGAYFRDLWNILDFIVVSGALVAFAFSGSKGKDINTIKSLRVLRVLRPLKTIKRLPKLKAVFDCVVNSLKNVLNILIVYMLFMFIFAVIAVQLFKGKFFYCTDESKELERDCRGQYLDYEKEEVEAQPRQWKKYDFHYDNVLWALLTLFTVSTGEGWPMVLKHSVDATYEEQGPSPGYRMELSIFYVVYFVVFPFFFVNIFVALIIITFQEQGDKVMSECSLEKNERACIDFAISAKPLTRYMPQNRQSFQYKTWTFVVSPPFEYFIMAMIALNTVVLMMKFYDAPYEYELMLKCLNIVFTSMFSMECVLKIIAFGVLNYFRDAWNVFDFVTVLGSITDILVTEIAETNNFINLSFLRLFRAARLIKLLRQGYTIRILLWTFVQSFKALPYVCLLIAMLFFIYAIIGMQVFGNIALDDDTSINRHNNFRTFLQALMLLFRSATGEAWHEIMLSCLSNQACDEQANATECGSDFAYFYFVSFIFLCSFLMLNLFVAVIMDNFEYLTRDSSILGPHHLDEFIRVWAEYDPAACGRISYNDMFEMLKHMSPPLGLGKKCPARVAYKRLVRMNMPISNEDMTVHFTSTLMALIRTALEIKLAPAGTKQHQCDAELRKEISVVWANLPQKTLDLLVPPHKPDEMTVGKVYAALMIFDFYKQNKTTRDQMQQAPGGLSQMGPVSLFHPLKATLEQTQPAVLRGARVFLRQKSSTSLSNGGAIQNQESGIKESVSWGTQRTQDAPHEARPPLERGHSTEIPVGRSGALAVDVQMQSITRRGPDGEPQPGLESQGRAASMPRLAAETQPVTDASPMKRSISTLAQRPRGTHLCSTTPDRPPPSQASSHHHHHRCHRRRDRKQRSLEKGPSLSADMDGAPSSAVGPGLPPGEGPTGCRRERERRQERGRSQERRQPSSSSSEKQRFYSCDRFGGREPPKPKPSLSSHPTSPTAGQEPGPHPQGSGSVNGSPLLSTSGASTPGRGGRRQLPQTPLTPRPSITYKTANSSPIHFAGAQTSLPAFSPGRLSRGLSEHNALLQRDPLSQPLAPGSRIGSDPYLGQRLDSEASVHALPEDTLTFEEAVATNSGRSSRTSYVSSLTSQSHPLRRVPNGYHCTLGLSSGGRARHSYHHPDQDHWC
T1 sequence (Q02410 whole entry): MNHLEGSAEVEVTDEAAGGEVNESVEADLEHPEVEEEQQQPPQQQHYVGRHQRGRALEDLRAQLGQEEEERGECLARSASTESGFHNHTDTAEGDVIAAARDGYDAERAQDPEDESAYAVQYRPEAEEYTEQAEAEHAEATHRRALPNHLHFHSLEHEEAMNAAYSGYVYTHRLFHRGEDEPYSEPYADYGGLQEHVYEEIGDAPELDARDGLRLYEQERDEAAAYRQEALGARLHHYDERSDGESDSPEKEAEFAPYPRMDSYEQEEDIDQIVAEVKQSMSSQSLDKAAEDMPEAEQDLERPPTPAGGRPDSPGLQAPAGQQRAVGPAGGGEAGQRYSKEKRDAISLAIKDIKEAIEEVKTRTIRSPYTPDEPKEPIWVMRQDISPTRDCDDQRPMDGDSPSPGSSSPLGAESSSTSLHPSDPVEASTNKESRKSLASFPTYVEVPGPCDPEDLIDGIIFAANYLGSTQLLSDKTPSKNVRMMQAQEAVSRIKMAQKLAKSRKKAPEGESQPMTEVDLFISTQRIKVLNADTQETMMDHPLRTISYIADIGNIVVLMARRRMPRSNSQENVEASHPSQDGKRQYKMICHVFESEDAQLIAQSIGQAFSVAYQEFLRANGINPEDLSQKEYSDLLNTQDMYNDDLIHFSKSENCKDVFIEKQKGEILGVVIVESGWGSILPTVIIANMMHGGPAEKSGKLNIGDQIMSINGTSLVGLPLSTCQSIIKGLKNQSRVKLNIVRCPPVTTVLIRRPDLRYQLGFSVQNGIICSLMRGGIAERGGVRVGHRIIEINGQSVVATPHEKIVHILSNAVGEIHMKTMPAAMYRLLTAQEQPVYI
NACHT, LRR and PYD domains-containing protein 3, sequence (Q96P20 whole entry, the tested form may be a part): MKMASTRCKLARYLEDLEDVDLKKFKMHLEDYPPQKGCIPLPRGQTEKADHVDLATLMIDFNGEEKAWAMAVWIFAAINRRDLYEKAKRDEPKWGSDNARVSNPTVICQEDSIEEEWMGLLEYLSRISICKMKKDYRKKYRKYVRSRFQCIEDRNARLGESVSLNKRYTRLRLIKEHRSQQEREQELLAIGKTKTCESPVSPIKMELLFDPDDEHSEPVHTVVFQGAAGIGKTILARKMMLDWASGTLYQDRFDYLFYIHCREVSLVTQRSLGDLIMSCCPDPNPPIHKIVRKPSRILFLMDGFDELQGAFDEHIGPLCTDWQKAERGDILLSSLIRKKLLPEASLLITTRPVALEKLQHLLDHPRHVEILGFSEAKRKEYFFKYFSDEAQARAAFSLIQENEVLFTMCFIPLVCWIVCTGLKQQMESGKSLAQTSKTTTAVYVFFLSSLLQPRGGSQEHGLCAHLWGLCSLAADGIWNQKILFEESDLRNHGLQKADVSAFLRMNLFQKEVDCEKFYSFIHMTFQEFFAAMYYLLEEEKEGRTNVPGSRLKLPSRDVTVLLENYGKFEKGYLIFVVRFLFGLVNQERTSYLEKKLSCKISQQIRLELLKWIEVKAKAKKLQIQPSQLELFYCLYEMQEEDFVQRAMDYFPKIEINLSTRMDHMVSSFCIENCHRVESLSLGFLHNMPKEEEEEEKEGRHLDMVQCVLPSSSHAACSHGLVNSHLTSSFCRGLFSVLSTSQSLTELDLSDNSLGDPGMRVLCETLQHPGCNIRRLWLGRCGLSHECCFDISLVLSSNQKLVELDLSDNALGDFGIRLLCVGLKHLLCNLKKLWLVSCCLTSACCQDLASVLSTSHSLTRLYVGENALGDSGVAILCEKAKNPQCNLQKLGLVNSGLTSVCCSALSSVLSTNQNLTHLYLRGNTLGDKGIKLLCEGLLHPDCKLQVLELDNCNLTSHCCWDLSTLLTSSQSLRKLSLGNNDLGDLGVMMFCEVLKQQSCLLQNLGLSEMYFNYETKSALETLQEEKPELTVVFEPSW
Induced myeloid leukemia cell differentiation protein Mcl-1, sequence (Q07820 whole entry): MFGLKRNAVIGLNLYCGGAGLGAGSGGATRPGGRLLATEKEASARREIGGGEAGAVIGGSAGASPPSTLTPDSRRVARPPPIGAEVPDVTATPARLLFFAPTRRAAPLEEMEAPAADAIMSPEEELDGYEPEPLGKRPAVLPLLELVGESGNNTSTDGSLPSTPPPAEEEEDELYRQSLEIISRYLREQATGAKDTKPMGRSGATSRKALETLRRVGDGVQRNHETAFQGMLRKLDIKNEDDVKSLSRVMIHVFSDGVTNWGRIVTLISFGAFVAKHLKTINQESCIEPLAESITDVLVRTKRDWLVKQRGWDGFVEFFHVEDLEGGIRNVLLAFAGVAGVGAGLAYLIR
DNA dC->dU-editing enzyme APOBEC-3A, sequence (P31941 whole entry): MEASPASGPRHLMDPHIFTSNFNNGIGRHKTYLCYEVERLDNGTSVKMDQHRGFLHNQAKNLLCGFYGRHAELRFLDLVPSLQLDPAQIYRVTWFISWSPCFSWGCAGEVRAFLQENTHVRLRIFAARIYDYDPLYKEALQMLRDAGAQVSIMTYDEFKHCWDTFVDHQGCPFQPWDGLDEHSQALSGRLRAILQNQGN
Nonstructural protein 1, sequence (Q194T2 whole entry, the tested form may be a part): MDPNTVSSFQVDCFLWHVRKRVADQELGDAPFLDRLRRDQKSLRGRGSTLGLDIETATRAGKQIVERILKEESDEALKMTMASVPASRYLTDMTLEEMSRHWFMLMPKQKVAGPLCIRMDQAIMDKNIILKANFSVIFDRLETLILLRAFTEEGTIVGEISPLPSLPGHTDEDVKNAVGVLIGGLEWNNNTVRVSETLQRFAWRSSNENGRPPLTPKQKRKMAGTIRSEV

SMILES: CCN(CC)c1ccc2nc3ccc(N)cc3[n+](-c3ccccc3)c2c1
- IC50 [1]: 4.79 µM (active)
- IC50 [2]: 67.7 µM (inactive)
- IC50 (Nonstructural protein 1): 8.47 µM (active)
- AC50 [3]: 3.78 µM (active)
- AC50 [4]: 3.25 µM (active)
- AC50 [5]: 1.28 µM (active)
- AC50 [6]: 1.41 µM (active)
- AC50 [7]: 3.84 µM (active)

SMILES: O=C(O)CCn1cc(C=C2C(=O)NC(=S)NC2=O)c(-c2cccc(Cl)c2)n1
- IC50 [8]: 30.7 µM (active)
- IC50 (Large T antigen): 76.3 µM (active)
- IC50 [9]: 13 µM (active)
- IC50 [10]: 2.87 µM (active)
- IC50 (Genome polyprotein): 10.9 µM (active)
- IC50 [11]: 10.1 µM (active)

SMILES: Cc1ccccc1/C=N/n1c(S)nnc1-c1ccccn1
- IC50 [12]: > 100 µM (inactive)
- IC50 [13]: 4.13 µM (active)

SMILES: Nc1c(O)ccc2c1C(=O)c1ccccc1C2=O
- IC50 (Protein Rev): > 75.4 µM (not active)
- IC50 [14]: 4.15 µM (active)
- EC50 [15]: > 300 µM (not active)
- EC50 [16]: 10.4 µM (active)
- IC50 [10]: 3.66 µM (not active)

SMILES: CCCC1CCC(c2ccc(OCC)cc2)=CC1=O (stereo not drawn)
- EC50 [17]: 0.126 µM (active)
- EC50 (H4): 20.7 µM (inconclusive)
- IC50 [1]: 53.9 µM (active)
- IC50 (Caspase-3): 21.3 µM (active)
- IC50 [18]: 10.1 µM (active)
- IC50 [19]: 29.6 µM (active)
- IC50 [20]: 40.2 µM (active)
